Test system: 422866-222-R5-J1-PDC spheroids with HUVEC/MSC, viability
Assay: Anticancer human tumor 422866-222-R5-J1-PDC patient-derived pancreatic adenocarcinoma cell line growth inhibition [GQUAD]
Conditions: for IC50: curve of first compound; for viability, T/C: stronger effect = lower value
Summary of the method: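 Tumor cells were grown as complex spheroids with HUVEC endothelial cells and mesenchymal stem cells as stroma. G-quadruplex stabilizers were combined with targeted agents over half-log dilutions from near the clinical Cmax, or from 10 microM.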

[1] = second compound 0.0316 µM, first compound 0.0316 µM
[2] = second compound 0.0316 µM, first compound 0.1 µM
[3] = second compound 0.0316 µM, first compound 0.316 µM
[4] = second compound 0.0316 µM, first compound 1 µM
[5] = second compound 0.0316 µM, first compound 3.16 µM
[6] = second compound 0.0316 µM, first compound 10 µM
[7] = second compound 0.1 µM, first compound 0.0316 µM
[8] = second compound 0.1 µM, first compound 0.1 µM
[9] = second compound 0.1 µM, first compound 0.316 µM
[10] = second compound 0.1 µM, first compound 1 µM
[11] = second compound 0.1 µM, first compound 3.16 µM
[12] = second compound 0.1 µM, first compound 10 µM
[13] = second compound 0.316 µM, first compound 0.0316 µM
[14] = second compound 0.316 µM, first compound 0.1 µM
[15] = second compound 0.316 µM, first compound 0.316 µM
[16] = second compound 0.316 µM, first compound 1 µM
[17] = second compound 0.316 µM, first compound 3.16 µM
[18] = second compound 0.316 µM, first compound 10 µM
[19] = second compound 1 µM, first compound 0.0316 µM
[20] = second compound 1 µM, first compound 0.1 µM
[21] = second compound 1 µM, first compound 0.316 µM
[22] = second compound 1 µM, first compound 1 µM
[23] = second compound 1 µM, first compound 3.16 µM
[24] = second compound 1 µM, first compound 10 µM
[25] = second compound 3.16 µM, first compound 0.0316 µM
[26] = second compound 3.16 µM, first compound 0.1 µM
[27] = second compound 3.16 µM, first compound 0.316 µM
[28] = second compound 3.16 µM, first compound 1 µM
[29] = second compound 3.16 µM, first compound 3.16 µM
[30] = second compound 3.16 µM, first compound 10 µM
[31] = second compound 10 µM, first compound 0.0316 µM
[32] = second compound 10 µM, first compound 0.1 µM
[33] = second compound 10 µM, first compound 0.316 µM
[34] = second compound 10 µM, first compound 1 µM
[35] = second compound 10 µM, first compound 3.16 µM
[36] = second compound 10 µM, first compound 10 µM
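Also: spheroids exposed to compounds for seven days before reading.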
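For viability, T/C in this document: percent viability relative to DMSO vehicle control taken as 100%.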

## C=CCn1c(=O)c2cnc(Nc3ccc(N4CCN(C)CC4)cc3)nc2n1-c1cccc(C(C)(C)O)n1 + Cc1cnc(CNC(=O)c2c(=O)c3ccc(N4CCCN(C)CC4)nc3n3c2sc2ccccc23)cn1
Second compound 0.0316 µM
  IC50: 310 nM
Second compound 0.1 µM
  IC50: 545 nM
Second compound 0.316 µM
  IC50: 1320 nM
Second compound 1 µM
  IC50: 2270 nM
Second compound 3.16 µM
  IC50: 3240 nM
Second compound 10 µM
  IC50: 2780 nM
[1]
  viability, T/C: 86.8%
[2]
  viability, T/C: 70%
[3]
  viability, T/C: 51.6%
[4]
  viability, T/C: 35.2%
[5]
  viability, T/C: 29.1%
[6]
  viability, T/C: 34.2%
[7]
  viability, T/C: 89.2%
[8]
  viability, T/C: 71.9%
[9]
  viability, T/C: 54.1%
[10]
  viability, T/C: 45.5%
[11]
  viability, T/C: 38.5%
[12]
  viability, T/C: 36.7%
[13]
  viability, T/C: 85%
[14]
  viability, T/C: 80.2%
[15]
  viability, T/C: 63.5%
[16]
  viability, T/C: 52.4%
[17]
  viability, T/C: 43.6%
[18]
  viability, T/C: 34.2%
[19]
  viability, T/C: 74.7%
[20]
  viability, T/C: 74.2%
[21]
  viability, T/C: 64.8%
[22]
  viability, T/C: 57.3%
[23]
  viability, T/C: 46.2%
[24]
  viability, T/C: 44.8%
[25]
  viability, T/C: 82.8%
[26]
  viability, T/C: 64.5%
[27]
  viability, T/C: 65.5%
[28]
  viability, T/C: 62.4%
[29]
  viability, T/C: 51.4%
[30]
  viability, T/C: 39.6%
[31]
  viability, T/C: 72.9%
[32]
  viability, T/C: 73.4%
[33]
  viability, T/C: 70.8%
[34]
  viability, T/C: 60.8%
[35]
  viability, T/C: 49%
[36]
  viability, T/C: 42.3%

## CC(C)(O)C1CCC(Nc2ccc3ncc(-c4cccc(C(F)(F)F)c4)n3n2)CC1 (stereo not drawn) + Cc1cnc(CNC(=O)c2c(=O)c3ccc(N4CCCN(C)CC4)nc3n3c2sc2ccccc23)cn1
Second compound 0.0316 µM
  IC50: 1440 nM
Second compound 0.1 µM
  IC50: > 10000 nM
Second compound 0.316 µM
  IC50: > 10000 nM
Second compound 1 µM
  IC50: > 10000 nM
Second compound 3.16 µM
  IC50: > 10000 nM
Second compound 10 µM
  IC50: 1810 nM
[1]
  viability, T/C: 102%
[2]
  viability, T/C: 80.6%
[3]
  viability, T/C: 97.1%
[4]
  viability, T/C: 51.4%
[5]
  viability, T/C: 42%
[6]
  viability, T/C: 51.8%
[7]
  viability, T/C: 91.4%
[8]
  viability, T/C: 76.3%
[9]
  viability, T/C: 81.2%
[10]
  viability, T/C: 66.5%
[11]
  viability, T/C: 58.8%
[12]
  viability, T/C: 63.7%
[13]
  viability, T/C: 86.8%
[14]
  viability, T/C: 83.9%
[15]
  viability, T/C: 75.1%
[16]
  viability, T/C: 78.6%
[17]
  viability, T/C: 76.3%
[18]
  viability, T/C: 75.5%
[19]
  viability, T/C: 74.6%
[20]
  viability, T/C: 88.7%
[21]
  viability, T/C: 79.4%
[22]
  viability, T/C: 75.6%
[23]
  viability, T/C: 82.3%
[24]
  viability, T/C: 75.4%
[25]
  viability, T/C: 71.1%
[26]
  viability, T/C: 101%
[27]
  viability, T/C: 76%
[28]
  viability, T/C: 72.8%
[29]
  viability, T/C: 68.5%
[30]
  viability, T/C: 54.1%
[31]
  viability, T/C: 83%
[32]
  viability, T/C: 67.8%
[33]
  viability, T/C: 83.2%
[34]
  viability, T/C: 75.5%
[35]
  viability, T/C: 25.9%
[36]
  viability, T/C: 0.79%

## Cc1[nH]c2ccccc2c1CCNCc1ccc(/C=C/C(=O)NO)cc1 + Cc1cnc(CNC(=O)c2c(=O)c3ccc(N4CCCN(C)CC4)nc3n3c2sc2ccccc23)cn1
Second compound 0.0316 µM
  IC50: > 316 nM
Second compound 0.1 µM
  IC50: 277 nM
Second compound 0.316 µM
  IC50: > 316 nM
Second compound 1 µM
  IC50: > 316 nM
Second compound 3.16 µM
  IC50: 269 nM
Second compound 10 µM
  IC50: 227 nM
Second compound 0.0316 µM, first compound 0.000999 µM
  viability, T/C: 99.8%
Second compound 0.0316 µM, first compound 0.00316 µM
  viability, T/C: 94.7%
Second compound 0.0316 µM, first compound 0.00999 µM
  viability, T/C: 83.5%
[1]
  viability, T/C: 65.8%
Second compound 0.0316 µM, first compound 0.0999 µM
  viability, T/C: 77.8%
[3]
  viability, T/C: 46.8%
Second compound 0.1 µM, first compound 0.000999 µM
  viability, T/C: 91.6%
Second compound 0.1 µM, first compound 0.00316 µM
  viability, T/C: 86.7%
Second compound 0.1 µM, first compound 0.00999 µM
  viability, T/C: 83.4%
[7]
  viability, T/C: 66.6%
Second compound 0.1 µM, first compound 0.0999 µM
  viability, T/C: 68%
[9]
  viability, T/C: 46.6%
Second compound 0.316 µM, first compound 0.000999 µM
  viability, T/C: 79.5%
Second compound 0.316 µM, first compound 0.00316 µM
  viability, T/C: 73.9%
Second compound 0.316 µM, first compound 0.00999 µM
  viability, T/C: 80.3%
[13]
  viability, T/C: 78.8%
Second compound 0.316 µM, first compound 0.0999 µM
  viability, T/C: 67.4%
[15]
  viability, T/C: 55.9%
Second compound 1 µM, first compound 0.000999 µM
  viability, T/C: 75.2%
Second compound 1 µM, first compound 0.00316 µM
  viability, T/C: 72.6%
Second compound 1 µM, first compound 0.00999 µM
  viability, T/C: 74.3%
[19]
  viability, T/C: 62.6%
Second compound 1 µM, first compound 0.0999 µM
  viability, T/C: 70.4%
[21]
  viability, T/C: 63.7%
Second compound 3.16 µM, first compound 0.000999 µM
  viability, T/C: 73.8%
Second compound 3.16 µM, first compound 0.00316 µM
  viability, T/C: 78.6%
Second compound 3.16 µM, first compound 0.00999 µM
  viability, T/C: 87.4%
[25]
  viability, T/C: 78.8%
Second compound 3.16 µM, first compound 0.0999 µM
  viability, T/C: 76.1%
[27]
  viability, T/C: 45.8%
Second compound 10 µM, first compound 0.000999 µM
  viability, T/C: 75.2%
Second compound 10 µM, first compound 0.00316 µM
  viability, T/C: 67.8%
Second compound 10 µM, first compound 0.00999 µM
  viability, T/C: 68.7%
[31]
  viability, T/C: 84.5%
Second compound 10 µM, first compound 0.0999 µM
  viability, T/C: 70.3%
[33]
  viability, T/C: 41.4%

## O=C(NO)c1cnc(N2CCN(S(=O)(=O)c3ccc4ccccc4c3)CC2)nc1 + Cc1cnc(CNC(=O)c2c(=O)c3ccc(N4CCCN(C)CC4)nc3n3c2sc2ccccc23)cn1
Second compound 0.0316 µM
  IC50: 824 nM
Second compound 0.1 µM
  IC50: 1640 nM
Second compound 0.316 µM
  IC50: 1650 nM
Second compound 1 µM
  IC50: 1730 nM
Second compound 3.16 µM
  IC50: 1460 nM
Second compound 10 µM
  IC50: 574 nM
[1]
  viability, T/C: 89.8%
[2]
  viability, T/C: 75.8%
[3]
  viability, T/C: 60.2%
[4]
  viability, T/C: 43%
[5]
  viability, T/C: 42%
[6]
  viability, T/C: 2.99%
[7]
  viability, T/C: 86.4%
[8]
  viability, T/C: 75.1%
[9]
  viability, T/C: 93.6%
[10]
  viability, T/C: 49.1%
[11]
  viability, T/C: 40.2%
[12]
  viability, T/C: 5.96%
[13]
  viability, T/C: 90.9%
[14]
  viability, T/C: 84%
[15]
  viability, T/C: 85.9%
[16]
  viability, T/C: 52.7%
[17]
  viability, T/C: 39.9%
[18]
  viability, T/C: 6.44%
[19]
  viability, T/C: 71.9%
[20]
  viability, T/C: 86.8%
[21]
  viability, T/C: 82.2%
[22]
  viability, T/C: 63.1%
[23]
  viability, T/C: 33.5%
[24]
  viability, T/C: 4.12%
[25]
  viability, T/C: 70.5%
[26]
  viability, T/C: 91.8%
[27]
  viability, T/C: 63.5%
[28]
  viability, T/C: 56.9%
[29]
  viability, T/C: 35.7%
[30]
  viability, T/C: 0.26%
[31]
  viability, T/C: 72.3%
[32]
  viability, T/C: 74.6%
[33]
  viability, T/C: 65.1%
[34]
  viability, T/C: 33.4%
[35]
  viability, T/C: 21%
[36]
  viability, T/C: 0.26%

Source: PubChem BioAssay AID2060511 (Molecular Pharmacology Branch, DTP, NCI, 2025)
